Data from article PMC8264259, “A Novel Ruthenium(II) Complex With Lapachol Induces G2/M Phase Arrest Through Aurora-B Kinase Down-Regulation and ROS-Mediated Apoptosis in Human Prostate Adenocarcinoma Cells” (Frontiers in Oncology, 2021).

How the values were obtained:
DU-145 MCTSs = assay: 3D multicellular tumor spheroids (MCTSs) culture; assay type: cell-based, human; details: for IC50: 3D spheroids, 24 h, Alamar blue, read-out: IC50 against the DU-145 MCTSs
Procedure: Multicellular tumor spheroids (MCTSs) were obtained according to the method reported by ([33]). Briefly, 200 μl of a solution of DU-145 cells (2.0 × 10^3 cells/well) were inserted in agarose-coated 96-well plates (1.5% w/v) and cultured in complete medium plus 3% Matrigel® (Corning). DU-145-MCTSs with stable structures had formed after five days. […] Negative control received the vehicle (DMSO 0.1% v/v) that was used for diluting the compounds tested. Finally, the MCTS proliferation inhibition (%) and IC50 were determined by Alamar blue® assay as described above. To investigate morphological changes other MCTSs were treated with 0.25, 0.5, 1.0, 1.5, and 2.0 μM of complex (2) and examined for 7 days. Spheroid integrity and diameter of MCTSs were analyzed by phase-contrast microscopy (Inverted Trinocular Microscope Opton TNB-O5T-PL) using AxioVision LE software (Carl Zeiss, Germany).

[1] = Partition coefficient (n-octanol/water), shake-flask method; assay type: physicochemical; details: 24 h, 37°C, triplicate
Procedure: The octanol-water partition coefficients (log P) were quantified using the shake-flask method ([30]). Each complex was tested in a mixture of equal volumes of water and n-octanol with continuous shaking for 24 h at 112g and 37°C. Then the samples were centrifuged for 5 min at 10g, and the organic and aqueous phases were separated. The concentration of complex in each phase was measured spectrophotometrically to determine values of […]. The experiments were carried out in triplicate.

DU-145 cells = assay: Clonogenic assay; assay type: cell-based, human; details: 24 h treatment, colonies after 7 days
Procedure: The clonogenic assay was performed in accordance with the guidelines of ([34]). […] DMSO (0.1% v/v) was used as the vehicle control. After 24 h, the cells were washed with PBS (Gibco-Invitrogen®) and harvested by trypsinization. Cells were counted using a Neubauer chamber and replated then on cell culture dishes of 21.5 cm^2 in a density of 200 cells per culture dish for each treatment in triplicate. After 7 days, cells were fixed in ice-cold methanol: acetic acid: distilled water (1:1:8), air-dried, and stained with crystal violet (0.5% w/v, Sigma-Aldrich) for 20 min. Colonies with at least 50 cells were counted. Plating efficiency (PE) of DU-145 cells was calculated by the ratio of the number of colonies observed after 7 days of incubation to the number of cells seeded (two hundred). The average of colonies in control was considered as 100%, and the number of colonies that arise after treatment of cells is called the surviving fraction (SF), obtained by:
SF = Numberofcoloniescountedineachtreatment/Numberofcoloniescountedincontrol x PE × 100

[2] = system: MDA-MB-231 (human breast adenocarcinoma); assay: Alamar blue cytotoxicity assay, MDA-MB-231; assay type: cell-based; details: for IC50: MDA-MB-231, Alamar blue, 24-h incubation, mean ± S.E.M.
Description: (§1) Human lung carcinoma (A549, ATCC® CCL-185™), human hepatocellular carcinoma (HepG2, ATCC® HB-8065™), and human breast adenocarcinoma (MDA-MB-231, ATCC® HTB-26™) were obtained from American Type Cell Collection (ATCC). Human melanoma (A-375, BCRJ-0278), Human colorectal adenocarcinoma (Caco-2, BCRJ 0059), human prostate adenocarcinoma (DU-145, BCRJ-0078, and PC-3, BCRJ-0269), human mouth fibroblast (FGH, BCRJ-0089), and human prostate epithelial cells (PNT-2, BCRJ-0366) were obtained from Rio de Janeiro Cells Bank (BCRJ). The cells A549, A-375, Caco-2, DU-145, HepG2, MDA-MB-231, and FGH were cultured in Dulbecco’s Modified Eagle’s Medium (DMEM, Gibco-Invitrogen®), PC-3 and PNT-2 cells were grown in Roswell Park Memorial Institute Medium (RPMI-1640, Gibco-Invitrogen®). Both mediums were supplemented according to the needs of each lineage, as recommended by its cell banks with 2 mM L-glutamine (Gibco-Invitrogen®), 10% or 20% fetal bovine serum (Gibco-Invitrogen®), 1% antibiotic-antimycotic solution (5 mg/ml penicillin, 5 mg/ml streptomycin, and 10 mg/ml neomycin, Gibco-Invitrogen®), and 3.7 g/L of NaHCO3 (Sigma-Aldrich). All cell lines were cultured in flasks at 37°C in 5% CO2 and 96% of relative humidity according to the procedures proposed by ([31]), and a mycoplasma stain kit (Sigma-Aldrich) was used to confirm the use of cells devoid of contamination. The assays were conducted between the third and the seventh-cell passage with sub-cultures every 3 to 4 days to maintain exponential growth. The cell viability was checked using the trypan blue dye exclusion assay for all experiments where over 95% of the cells were viable at the beginning of the tests.
(§2) The in vitro antiproliferative activity was quantified using the Alamar blue® assay, according to the method reported by ([32]). Cells were seeded in 96-well plates for all experiments (1.5 × 10^4 cells/well). After 24 h, the complexes were dissolved in DMSO and added to each well and incubated for 24 h. Dilutions of the complexes were prepared to obtain concentrations ranging from 0.3 to 100 μM. […] DMSO (0.1% v/v) was used as the vehicle control. Following 24 h of incubation, 50 μl of Alamar blue® (resazurin at 0.01% w/v, Sigma-Aldrich) was added to each well, and the plates were incubated, at 37°C, in the dark. Fluorescence reading was performed in a Synergy H1 Fluorescence Spectrophotometer (BioTek®), using excitation and emission filters at wavelengths of 560 and 590 nm, respectively. The fluorescence intensity was measured in arbitrary fluorescence units (AFU) and the AFU of untreated cells (CTL) was considered 100%. The cytotoxic effects of the compounds were estimated in terms of cell proliferation inhibition (%) and expressed as half-maximal inhibitory concentration (IC50). The cell proliferation inhibition percentage of cells exposed to treatments was calculated following: % Inhibition = 100 − (AFU of treated well/AFU of control well) × 100). The IC50 values were calculated from the cell proliferation inhibition percentage by nonlinear regression method using CompusSyn® Software.

[3] = system: PC-3 (human prostate adenocarcinoma); assay: Alamar blue cytotoxicity assay, PC-3; assay type: cell-based; details: for IC50: PC-3, Alamar blue, 24-h incubation, mean ± S.E.M.
Description: as §1, §2

[4] = system: DU-145 (human prostate adenocarcinoma); assay: Alamar blue cytotoxicity assay, DU-145; assay type: cell-based; details: for IC50: DU-145, Alamar blue, 24-h incubation, mean ± S.E.M.
Description: as §1, §2

[5] = SI = IC50[FGH]/IC50[MDA-MB-231]
[6] = SI = IC50[PNT-2]/IC50[MDA-MB-231]

SMILES: CC(C)=CCC1=C([O-])C(=O)c2ccccc2C1=O.F[P-](F)(F)(F)(F)F.[Ru+2].c1ccc(-c2ccccn2)nc1.c1ccc(P(CP(c2ccccc2)c2ccccc2)c2ccccc2)cc1 [complex (1), [Ru(Lap)(dppm)(bipy)]PF6]
- IC50 (DU-145 MCTSs): 2400 nM
- log P(o/w) [1]: 0.617 ± 0.014
- survival fraction (SF) (DU-145 cells; DU-145, 0.125 μM): 65.1%
- survival fraction (SF) (DU-145 cells; DU-145, 0.25 μM): 35.1%
- survival fraction (SF) (DU-145 cells; DU-145, 0.5 μM): 18.3%
- survival fraction (SF) (DU-145 cells; DU-145, 1.0 μM): 9.0%
- survival fraction (SF) (DU-145 cells; DU-145, 1.5 μM): 4.3%
- IC50 [2]: 2100 ± 400 nM
- Selectivity index (SI) [2, 5]: 1.5
- Selectivity index (SI) [2, 6]: 2.8
- IC50 [3]: 1300 ± 400 nM
- Selectivity index (SI) ([3]; SI = IC50[FGH]/IC50[PC-3]): 2.4
- Selectivity index (SI) ([3]; SI = IC50[PNT-2]/IC50[PC-3]): 4.5
- IC50 [4]: 900 ± 200 nM
- Selectivity index (SI) ([4]; SI = IC50[FGH]/IC50[DU-145]): 3.4
- Selectivity index (SI) ([4]; SI = IC50[PNT-2]/IC50[DU-145]): 6.5

SMILES: CC(C)=CCC1=C([O-])C(=O)c2ccccc2C1=O.F[P-](F)(F)(F)(F)F.[Ru+2].c1ccc(P(CP(c2ccccc2)c2ccccc2)c2ccccc2)cc1.c1cnc2c(c1)ccc1cccnc12 [complex (2), [Ru(Lap)(dppm)(phen)]PF6]
- IC50 (DU-145 MCTSs): 1900 nM
- total spheroid area over time (DU-145 MCTSs; DU-145 MCTSs treated with 0.25-2.0 μM, examined for 7 days): decrease in the total spheroid area
- more potent than cisplatin (fold) (DU-145 MCTSs; DU-145 MCTSs, IC50 ratio vs cisplatin): ≥ 32 fold
- log P(o/w) [1]: 0.839 ± 0.007
- survival fraction (SF) (DU-145 cells; DU-145, 0.125 μM): 58.0%
- survival fraction (SF) (DU-145 cells; DU-145, 0.25 μM): 17.7%
- survival fraction (SF) (DU-145 cells; DU-145, 0.5 μM): 4.3%
- survival fraction (SF) (DU-145 cells; DU-145, 1.0 μM): 0%
- survival fraction (SF) (DU-145 cells; DU-145, 1.5 μM): 0%
- IC50 [2]: 2000 nM
- Selectivity index (SI) [2, 5]: 1.2
- Selectivity index (SI) [2, 6]: 3.4
- IC50 [3]: 1100 ± 300 nM
- Selectivity index (SI) ([3]; SI = IC50[FGH]/IC50[PC-3]): 2.2
- Selectivity index (SI) ([3]; SI = IC50[PNT-2]/IC50[PC-3]): 6.2
- IC50 [4]: 800 ± 100 nM
- cell viability with ROS scavenger NAC ([4]; DU-145, cotreatment with 5 mM NAC, 24 h, Alamar blue): prevented the reduction of cell viability
- Selectivity index (SI) ([4]; SI = IC50[FGH]/IC50[DU-145]): 3.1
- Selectivity index (SI) ([4]; SI = IC50[PNT-2]/IC50[DU-145]): 8.5
